Measurements reported in ChEMBL document CHEMBL3259797, “Radiosyntheses and in vivo evaluation of carbon-11 PET tracers for PDE10A in the brain of rodent and nonhuman primate” (Bioorg Med Chem, 2014).

How the values were obtained:
Cerebellum [1] = test: Biodistribution in Sprague-Dawley rat cerebellum at 14.8 to 18.5 MBq, iv treated with MP-10 for 5 mins prior to compound administration measured at 30 mins post-injection by gamma counting analysis; format: ADME, organism-based; conditions: in vivo, 0.5 h
[2] = Drug metabolism in iv dosed cynomolgus monkey plasma assessed as compound remaining measured at 60 mins post-injection by HPLC analysis; format: ADME, organism-based, Macaca fascicularis; conditions: read-out: Stability
Kidney [3] = test: Biodistribution in Sprague-Dawley rat kidney at 14.8 to 18.5 MBq, iv treated with MP-10 for 5 mins prior to compound administration measured at 30 mins post-injection by gamma counting analysis; format: ADME, organism-based; conditions: in vivo, 0.5 h
Brain [4] = test: Biodistribution in cynomolgus monkey middle brain at 260 to 370 MBq, iv measured at 20 to 100 mins post-injection by microPET analysis; format: ADME, organism-based, Macaca fascicularis; conditions: in vivo
Cerebellum [5] = test: Biodistribution in Sprague-Dawley rat cerebellum at 14.8 to 18.5 MBq, iv measured at 5 mins post-injection by gamma counting analysis; format: ADME, organism-based; conditions: in vivo
Striatum [6] = test: Biodistribution in Sprague-Dawley rat striatum at 14.8 to 18.5 MBq, iv measured at 60 mins post-injection by gamma counting analysis; format: ADME, organism-based; conditions: in vivo, 1 h
Lung [7] = test: Biodistribution in Sprague-Dawley rat lung at 14.8 to 18.5 MBq, iv measured at 5 mins post-injection by gamma counting analysis; format: ADME, organism-based; conditions: in vivo
Plasma [8] = test: Metabolic stability in iv dosed cynomolgus monkey plasma supernatant under deproteinated condition assessed as compound remaining measured at 5 to 60 mins by HPLC analysis; format: ADME, organism-based, Macaca fascicularis; conditions: in vivo
Blood = test: Biodistribution in Sprague-Dawley rat blood at 14.8 to 18.5 MBq, iv measured at 30 mins post-injection by gamma counting analysis; format: ADME, organism-based; conditions: in vivo, 0.5 h
[9] = Drug metabolism in iv dosed cynomolgus monkey plasma assessed as compound remaining measured at 30 mins post-injection by HPLC analysis; format: ADME, organism-based, Macaca fascicularis; conditions: read-out: Stability
Kidney [10] = test: Biodistribution in Sprague-Dawley rat kidney at 14.8 to 18.5 MBq, iv measured at 30 mins post-injection by gamma counting analysis; format: ADME, organism-based; conditions: in vivo, 0.5 h
[11] = Biodistribution in cynomolgus monkey temporal cortex at 260 to 370 MBq, iv measured at 20 to 100 mins post-injection by microPET analysis; format: ADME, organism-based, Macaca fascicularis; conditions: in vivo
Striatum [12] = test: Biodistribution in Sprague-Dawley rat striatum at 14.8 to 18.5 MBq, iv treated with MP-10 for 5 mins prior to compound administration measured at 30 mins post-injection by gamma counting analysis; format: ADME, organism-based; conditions: in vivo, 0.5 h
Plasma [13] = test: Drug metabolism in iv dosed cynomolgus monkey plasma assessed as compound remaining by HPLC analysis; format: ADME, organism-based, Macaca fascicularis; conditions: in vivo
Brain [14] = test: Biodistribution in Sprague-Dawley rat brain at 14.8 to 18.5 MBq, iv measured at 30 mins post-injection by gamma counting analysis; format: ADME, organism-based; conditions: in vivo, 0.5 h
Nucleic Acid [15] = test: Ratio of drug level in striatum to cerebellum in cynomolgus monkey at 260 to 370 MBq, iv measured at 25 mins post-injection by microPET analysis; format: ADME, organism-based, Macaca fascicularis; conditions: in vivo
Brain [16] = test: Biodistribution in Sprague-Dawley rat brain at 14.8 to 18.5 MBq, iv measured at 5 mins post-injection by gamma counting analysis; format: ADME, organism-based; conditions: in vivo
[17] = Biodistribution in cynomolgus monkey striatum at 260 to 370 MBq, iv measured at 25 mins post-injection by microPET analysis; format: ADME, organism-based, Macaca fascicularis; conditions: in vivo
Muscle tissue = test: Biodistribution in Sprague-Dawley rat muscle at 14.8 to 18.5 MBq, iv measured at 30 mins post-injection by gamma counting analysis; format: ADME, organism-based; conditions: in vivo, 0.5 h
Nucleic Acid [18] = test: Ratio of drug level in striatum to cerebellum in Sprague-Dawley rat at 14.8 to 18.5 MBq, iv measured at 60 mins post-injection by gamma counting analysis; format: ADME, organism-based; conditions: in vivo, 1 h
Lung [19] = test: Biodistribution in Sprague-Dawley rat lung at 14.8 to 18.5 MBq, iv treated with MP-10 for 5 mins prior to compound administration measured at 30 mins post-injection by gamma counting analysis; format: ADME, organism-based; conditions: in vivo, 0.5 h
Brain [20] = test: Biodistribution in Sprague-Dawley rat brain at 14.8 to 18.5 MBq, iv measured at 60 mins post-injection by gamma counting analysis; format: ADME, organism-based; conditions: in vivo, 1 h
[21] = Drug metabolism in iv dosed cynomolgus monkey plasma measured at 60 mins post-injection by HPLC analysis; format: ADME, organism-based, Macaca fascicularis; conditions: read-out: Drug metabolism
Nucleic Acid [22] = test: Ratio of drug level in striatum to cerebellum in cynomolgus monkey at 260 to 370 MBq, iv measured at 80 mins post-injection by microPET analysis; format: ADME, organism-based, Macaca fascicularis; conditions: in vivo
Plasma [23] = test: Drug recovery in iv dosed cynomolgus monkey plasma measured at 30 mins post-injection by HPLC analysis; format: ADME, organism-based, Macaca fascicularis; conditions: in vivo, 0.5 h
[24] = Drug recovery in iv dosed cynomolgus monkey arterial blood measured at 60 mins post-injection by HPLC analysis; format: ADME, organism-based, Macaca fascicularis; conditions: in vivo, 1 h
[25] = Drug recovery in iv dosed cynomolgus monkey arterial blood assessed as radiometabolite level measured at 60 mins post-injection by HPLC analysis; format: ADME, organism-based, Macaca fascicularis; conditions: in vivo, 1 h
[26] = Drug metabolism in iv dosed cynomolgus monkey plasma assessed as compound remaining measured at 2 mins post-injection by HPLC analysis; format: ADME, organism-based, Macaca fascicularis; conditions: read-out: Stability
Nucleic Acid [27] = test: Ratio of drug level in striatum to cerebellum in cynomolgus monkey at 260 to 370 MBq, iv measured at 30 mins post-injection by microPET analysis; format: ADME, organism-based, Macaca fascicularis; conditions: in vivo, 0.5 h
[28] = Biodistribution in cynomolgus monkey striatum at 260 to 370 MBq, iv measured at 30 mins post-injection by microPET analysis; format: ADME, organism-based, Macaca fascicularis; conditions: in vivo, 0.5 h

SMILES | Drug uptake (Cerebellum [1]) [% ID/g] | Drug uptake (Kidney [3]) [% ID/g] | Drug uptake (Brain [4]) | Drug uptake (Cerebellum [5]) [% ID/g] | Drug uptake (Striatum [6]) [% ID/g] | Drug uptake (Lung [7]) [% ID/g] | Stability (Plasma [8]) [%] | Drug uptake (Blood) [% ID/g] | Drug uptake (Kidney [10]) [% ID/g] | Drug uptake [11] | Drug uptake (Striatum [12]) [% ID/g] | Drug uptake (Brain [14]) [% ID/g] | Drug uptake (Brain [16]) [% ID/g] | Drug uptake (Muscle tissue) [% ID/g] | Ratio (Nucleic Acid [18]) | Drug uptake (Lung [19]) [% ID/g] | Drug uptake (Brain [20]) [% ID/g] | also measured
Cn1cc(-c2ccncc2)c(-c2ccc(OCc3cc(O[11CH3])c4ccccc4n3)cc2)n1 | 0.112 | 1.072 | Active | 0.215 | 0.201 | 0.89 | 88 | 0.192 | 1.294 | Active | 0.175 | 0.087 | 0.21 | 0.133 | 4.5 | 0.362 | 0.057 | remaining at 1 h [2]: 42%; remaining at 0.5 h [9]: 60%; Stability (Plasma [13]): 85%; Ratio (Nucleic Acid [15]): 2.7; Drug uptake [17]: Active; metabolised at 1 h [21]: 42%
Cn1cc(-c2ccncc2)c(-c2ccc(OCc3nc4ccccc4cc3O[11CH3])cc2)n1 | 0.119 | 1.523 | Active | 0.229 | 0.38 | 1.602 | 88 | 0.321 | 1.647 | Active | 0.294 | 0.133 | 0.231 | 0.244 | 6 | 0.404 | 0.095 | Ratio (Nucleic Acid [22]): 4.5; Drug recovery (Plasma [23]): 82%; Drug recovery [24]: 65%; Drug recovery [25]: 30%; remaining at 2 min [26]: 97%; Ratio (Nucleic Acid [27]): 3.5; SUV [28]: 1.8
